From US20240156971A1, “METHODS AND SORTILIN BINDING CONJUGATE COMPOUNDS FOR TARGETING CANCER STEM CELLS” (TRANSFERT PLUS, SOCIÉTÉ EN COMMANDITE, priority 2021, published 2024)
Square brackets hold non-standard residues; d marks the D form. Ends that are not written are not given here. Nle = CCCC[C@H](N)C(=O)O

Tests used:
hBCSCs [1] = test: Cell cycle analysis (G2/M) of hBCSCs; type: cell-based, human; settings: 2 h with 4 μM docetaxel or 2 μM TH1902, then 22 h or 48 h
Method: Cell Cycle Analysis Following Treatment of hBCSC by Test Articles. hBCSCs (2.8×10^5 cells/well) and MDA-MB-231/luc cells (2.3×10^5 cells/well) were seeded in 6-well plates one day prior to treatment. To test the effects of Docetaxel and TH1902 on cell cycle phases, hBCSCs and MDA-MB-231/luc cells were treated for 2 hours in serum-free media with vehicle (DMSO), 4 μM docetaxel or 2 μM TH1902 (equimolar of docetaxel), rinsed with complete media and incubated in fresh complete media for 22 and 48 hours. For the experiments with the P-gp inhibitors, hBCSCs were first pre-treated for 30 minutes in serum-free media with vehicle (DMSO), or 10 μM cyclosporine A or PSC-833 (P-gp inhibitors). Next, cells were treated for 2 hours with 4 μM docetaxel or 2 μM TH1902 in the continued presence or absence of the P-gp inhibitors before being rinsed and incubated in fresh complete media in the continued presence or absence of the P-gp inhibitors. Cells were then incubated for 22 and 48 hours. In both assays, following the incubation, cells were detached with trypsin, fixed with ice-cold 70% EtOH and kept overnight at 4° C. Cells were washed once with PBS, after which they were stained for 30 minutes at room temperature with FxCycle™ PI/RNase Staining Solution (Thermo Scientific, Waltham, MA; #F10797). Cells were finally subjected to cell cycle analysis using a BD Accuri™ C6 flow cytometer.

hBCSCs [2] = test: Confocal microscopy of hBCSCs (DAPI, anti-α-tubulin); type: cell-based, human; settings: 4 μM docetaxel or 2 μM TH1902, 48 hours post-treatment; for appearance of fragmented nuclei: DAPI
Method: Effects of Docetaxel and TH1902 on Tubulin Polymerization. hBCSCs were grown to 80% confluence on pre-coated 18 mm microscope cover slips (Celprogen, #E36102-29-CS18), rinsed with PBS and exposed to serum-free culture medium containing vehicle (DMSO), 4 μM docetaxel or 2 μM TH1902 at 37° C. Following incubation for 2 hours the cells were rinsed with complete culture medium and incubated in fresh complete medium for 48 hours. Cells were then washed with PHEM buffer (60 mM Pipes, 25 mM HEPES, 10 mM EGTA and 2 mM MgCl2, pH 6.9) and fixed for 15 minutes with 4% paraformaldehyde, then permeabilized with 1% Triton™ X-100 in PHEM buffer for 5 minutes and washed again with PHEM buffer. The cells were blocked in PBS (2.6 mM KCl, 1.4 mM KH2PO4, 136.9 mM NaCl and 6.5 mM Na2HPO4·7H2O; pH 7.2) containing 10% normal goat serum and 0.05% Triton™ and then incubated for 1 hour with 1:2000 anti-α-Tubulin primary monoclonal antibody (clone B-5-1-2, Sigma-Aldrich; #T5168) diluted in washing buffer (PBS containing 5% normal goat serum and 0.025% Triton). Cells were washed with washing buffer and incubated for 1 hour with Alexa Fluor™ 488-conjugated goat anti-mouse secondary antibody (1:1000; Invitrogen; #A-11001), washed with diluted blocking buffer, stained with DAPI ([…] in PBS, Invitrogen; #D1306) for 3 minutes, washed again in washing blocking buffer and mounted onto slides using Prolong™ Gold antifade reagent (Invitrogen, P36934). Cell images were finally digitalized by confocal microscopy (Nikon A1) and analyzed using NIH ImageJ™ Version 1.4.21 software. The excitation and emission wavelengths used for Alexa Fluor™ 488 were 488 nm and 525 nm, respectively; the excitation and emission wavelengths used for DAPI were 404 nm and 450 nm, respectively.

hBCSCs [3] = test: hBCSC apoptosis by flow cytometry (annexin V-FITC/PI); type: cell-based, human; settings: 2 h treatment, 4 μM docetaxel or 2 μM TH1902; 22 h, 48 h, 72 h post-treatment
Method: Assessment of hBCSC Apoptosis by Flow Cytometry. AnnexinV/PI staining was performed using an Apoptosis Detection Kit (BD Pharmingen, Mississauga ON) according to the manufacturer's instructions. Briefly, hBCSCs (1.3×10^5 cells/well) were seeded for 24 hours in 12-well plates. Cells were treated in serum-deprived medium for 2 hours with vehicle (DMSO), 4 μM Docetaxel or 2 μM TH1902. Cells were washed with complete medium and incubated in fresh complete medium for 22, 48, and 72 hours. Cells were finally harvested, resuspended in a staining solution of 100 μl of 1×binding buffer containing 5 μL of annexinV-FITC and 5 μL of PI. Cells were incubated for 15 minutes at room temperature in the dark before analysis by flow cytometry. The extent of apoptosis was measured, then analyzed using BD Accuri™ C6 software.

hOvCSC xenografts = test: Growth of hOvCSC xenografts in mice; type: in vivo; settings: weekly i.v.; TH1902 at doses equivalent to 1, 1.25 or 1.5 the MTD of docetaxel; docetaxel 15 mg/kg (MTD)
Text: In vivo Assessment of Docetaxel and TH1902 Anti-Tumor Efficacy. Tumor xenografts were established by subcutaneous inoculation of 10^3 hBCSC cells, hOvCSC and hPCSC resuspended in […] of HBSS containing 50% Matrigel™, into the right flank of NCG triple immunodeficient female mice (Charles River, Saint-Constant QC) under light isoflurane anesthesia. Three days following implantation of either hBCSC or hOvCSCS, mice commenced receiving weekly treatment by intravenous bolus injections of vehicle (10% polysorbate-80, 5% dextrose, 0.04% formic acid pH 4.3), docetaxel (15 mg/kg (the MTD for this agent) or 3.75 mg/kg (¼ MTD for this agent), dissolved in 5% dextrose, 3.3% ethanol, […]) dissolved in vehicle. […] Tumor growth was measured using two-dimensional measurements taken with an electronic caliper, and tumor volume was calculated according to the following formula: tumor volume (mm^3)=π/6×length×width^2. Animal weights were measured three times per week with a precision of 10 mg.

[4] = type: in vivo, mice
Text: In vivo Assessment of Docetaxel and TH1902 Anti-Tumor Efficacy. Tumor xenografts were established by subcutaneous inoculation of 10^3 hBCSC cells, hOvCSC and hPCSC resuspended in […] of HBSS containing 50% Matrigel™, into the right flank of NCG triple immunodeficient female mice (Charles River, Saint-Constant QC) under light isoflurane anesthesia. Three days following implantation of either hBCSC or hOvCSCS, mice commenced receiving weekly treatment by intravenous bolus injections of vehicle (10% polysorbate-80, 5% dextrose, 0.04% formic acid pH 4.3), docetaxel (15 mg/kg (the MTD for this agent) or 3.75 mg/kg (¼ MTD for this agent), dissolved in 5% dextrose, 3.3% ethanol, 1.7% Tween™-80) or TH1902 (35 mg/kg or 8.75 mg/kg) dissolved in vehicle. Note that the two TH1902 and docetaxel concentrations contain equimolar amounts of docetaxel due to the two docetaxel moieties per TH1902 molecule. Tumor growth was measured using two-dimensional measurements taken with an electronic caliper, and tumor volume was calculated according to the following formula: tumor volume (mm^3)=π/6×length×width^2. Animal weights were measured three times per week with a precision of 10 mg.

For CC(=O)O[C@@]12CO[C@@H]1C[C@H](O)[C@@]1(C)C(=O)[C@H](O)C3=C(C)[C@@H](OC(=O)[C@H](O)[C@@H](NC(=O)OC(C)(C)C)c4ccccc4)C[C@@](O)([C@@H](OC(=O)c4ccccc4)[C@H]21)C3(C)C [docetaxel, reference compound], the “G2/M cell cycle arrest” value (hBCSCs [1]) was “not”, the “cell morphology change versus vehicle-treated cells” value (hBCSCs [2]) was “visible morphology change” and the “enlargement of cells and re-organization of the microtubules (tubulin labelling)” value (hBCSCs [2]) was “present in some”. For the same compound, the “appearance of fragmented nuclei” value (hBCSCs [2]) was “not seen”, the total apoptosis (hBCSCs [3]) was “indistinguishable from that seen in control cells” and the “growth of tumors originating from ovarian CSCs” value (hOvCSC xenografts) was “no significant reduction of tumor growth”. For the same compound, the weight loss ([4]; mouse, in vivo) was 5-10%.

For “Acetyl-GVRAK(docetaxel)AGVRN(Nle)FK(docetaxel)SESY (Ac-GVRAK(docetaxel)AGVRN[Nle]FK(docetaxel)SESY) [TH1902]”, the “G2/M cell cycle arrest” value (hBCSCs [1]) was “significant increase in G2/M cell cycle arrest”, the “cell morphology change versus vehicle-treated cells” value (hBCSCs [2]) was “visible morphology change” and the “enlargement of cells and re-organization of the microtubules (tubulin labelling)” value (hBCSCs [2]) was “more evident”. For the same compound, the “appearance of fragmented nuclei” value (hBCSCs [2]) was “fragmented nuclei in many of the cells”, the total apoptosis (hBCSCs [3]) was “large increase in apoptosis” and the “growth of tumors originating from ovarian CSCs” value (hOvCSC xenografts) was “significant inhibition of the growth of tumors”. The “effect on animals' weight” value ([4]; FIGS. 8C, 9C and 10C) was “no or minimal effect”.
